Holding throughout (settings): stereoisomer not certain
Series [1] is described as follows: RP, Phenomenex Synergi Polar-RP, 100 × 3 mm, 2.5 µm, 40 °C, 0.4 mL/min, estimated dead time 1.1 min; A: water + 1 mM ammonium fluoride; B: methanol + 1 mM ammonium fluoride; C: acetonitrile; D: 50% isopropanol + 50% acetone; gradient (min/%B/%C/%D) 0/5/0/0 2/5/0/0 8/95/0/0 12/80/15/0 19/25/70/0 19.5/0/25/70 21.5/0/25/70 22.5/0/25/0 23/5/0/0.
Series [2] in a line: RP, Waters ACQUITY UPLC BEH C18, 100 × 1 mm, 1.7 µm, 50 °C, 0.3 mL/min, estimated dead time 0.17 min; A: water + 0.1% formic acid + 20 mM ammonium formate; B: methanol + 0.1% formic acid + 20 mM ammonium formate; gradient (min/%B) 0/0 15/100 21/100 22/0 30/0.
Series [3] in a line: RP, Waters ACQUITY UPLC BEH C18, 100 × 1 mm, 1.7 µm, 50 °C, 0.3 mL/min, estimated dead time 0.17 min; A: water + 10 mM ammonium bicarbonate; B: 10% water + 90% methanol + 10 mM ammonium bicarbonate; gradient (min/%B) 0/0 15/100 21/100 22/0 30/0.

For `O=S(=O)(O)c1nc2ccccc2s1` [2-Benzothiazolesulfonic acid], the LC retention time in series [1] was 6.31 min.
On the same count and under the same terms, to `O=c1cc[nH]c(=S)[nH]1` [2-thiouracil] belongs 2.53 min; to `Oc1cccc2n[nH]nc12` [4-Hydroxybenzotriazole], 7 min.
On the same count and under the same terms, the result for `O=S(=O)(O)CCC(F)(F)C(F)(F)C(F)(F)C(F)(F)C(F)(F)C(F)(F)F` [6-2fluorotelomer sulfonic acid] reads 8.97 min; that for `S=c1nc[nH]c2nc[nH]c12` [6-Mercaptopurine], 3.32 min; that for `Oc1ccc(Cl)cc1Cl` [24-Dichlorophenol], 8.49 min.
On to `O=C(O)COc1ccc(Cl)cc1Cl` [24-Dichlorophenoxyacetic acid], for which, in series [1], the LC retention time is 8.06 min.
As for `O=[N+]([O-])c1ccc(O)c([N+](=O)[O-])c1` [24-Dinitrophenol], in series [1], the LC retention time is 7.62 min.
Still for that read-out and setting: the result for `Nc1ccc(S(=O)(=O)O)c(N)c1` [24-diaminobenzenesulfonic acid] reads 1.48 min; that for `O=S(=O)(O)c1ccc2ccc(S(=O)(=O)O)cc2c1` [27-Naphthalenedisulfonic acid], 1.65 min; that for `Oc1cc(Cl)c(Cl)c(Cl)c1` [345-trichlorophenol], 10.8 min.
For `O=c1[nH]c(Cl)c(Cl)cc1Cl` [356-Trichloro-2-pyridinol], the LC retention time in series [1] is 9.23 min.
On the same count and under the same terms, to `O=C(O)Cc1ccc(S(=O)(=O)O)cc1` [(4-Sulfophenyl)acetic acid] belongs 1.82 min.
On to `Nc1nc2c(ncn2COCCO)c(=O)[nH]1` [Acyclovir], for which the LC retention time in series [1] was 3.17 min.
Still for that read-out and setting: to `CC(C)c1c(C(=O)Nc2ccccc2)c(-c2ccccc2)c(-c2ccc(F)cc2)n1CCC(O)CC(O)CC(=O)O` (stereo not drawn) [Atorvastatin] belongs 10.4 min; to `COc1cc(O)c(C(=O)c2ccccc2)cc1S(=O)(=O)O` [Benzophenone-4], 8.32 min.
On to `CC(C)(Oc1ccc(CCNC(=O)c2ccc(Cl)cc2)cc1)C(=O)O` [Bezafibrate], for which, in series [1], the LC retention time is 9.33 min.
The same measure, in the same setting: the result for `CC(O)(CS(=O)(=O)c1ccc(F)cc1)C(=O)Nc1ccc(C#N)c(C(F)(F)F)c1` (stereo not drawn) [Bicalutamide] reads 10.7 min.
On the same count and under the same terms, to `O=S(=O)(c1ccc(O)cc1)c1ccc(O)cc1` [Bisphenol S] belongs 9.36 min; to `N#Cc1cc(Br)c(O)c(Br)c1` [Bromoxynil], 8.68 min.
Consider `Cc1ccc(-c2cc(C(F)(F)F)nn2-c2ccc(S(N)(=O)=O)cc2)cc1` [Celecoxib], for which, in series [1], the LC retention time is 11.1 min.
Same read-out and setting: the result for `CC(C)(Oc1ccc(Cl)cc1)C(=O)O` [Clofibric acid] reads 8.57 min; that for `O=c1c(-c2ccc(O)cc2)coc2cc(O)ccc12` [Daidzein], 9.89 min.
Still for that read-out and setting: the result for `O=C(O)Cc1ccccc1Nc1c(Cl)cccc1Cl` [Diclofenac] reads 10.1 min; that for `COCCN(C(=O)CS(=O)(=O)O)c1c(C)cccc1C` [Dimethachlor ESA], 7.88 min; that for `COCCN(C(=O)C(=O)O)c1c(C)cccc1C` [Dimethachlor OA], 7.5 min.
In the case of `N#Cc1nn(-c2c(Cl)cc(C(F)(F)F)cc2Cl)c(N)c1S(=O)C(F)(F)F` (stereo not drawn) [Fipronil], the LC retention time in series [1] was 10.9 min.
With `O=C(NC(=O)c1c(F)cccc1F)Nc1ccc(Oc2ccc(C(F)(F)F)cc2Cl)cc1F` [Flufenoxuron], the LC retention time in series [1] was 11.9 min.
On the same count and under the same terms, to `NS(=O)(=O)c1cc(C(=O)O)c(NCc2ccco2)cc1Cl` [Furosemide] belongs 8.45 min.
For the molecule `O=c1c(-c2ccc(O)cc2)coc2cc(O)cc(O)c12` [Genistein], in series [1], the LC retention time was 10.3 min.
Take `CCC1=C(C)CN(C(=O)NCCc2ccc(S(=O)(=O)NC(=O)NC3CCC(C)CC3)cc2)C1=O` (stereo not drawn) [Glimepiride]: the LC retention time in series [1] was 11.3 min.
Take `CC(C(=O)O)c1cccc(C(=O)c2ccccc2)c1` (stereo not drawn) [Ketoprofen]: the LC retention time in series [1] was 9.75 min.
As for `CCCC1CC(C(=O)NC(C(C)O)C2OC(SC)C(O)C(O)C2O)N(C)C1` (stereo not drawn) [Lincomycin], in series [1], the LC retention time was 9.98 min.
Still for that read-out and setting: the result for `CCCCc1nc(Cl)c(CO)n1Cc1ccc(-c2ccccc2-c2nn[nH]n2)cc1` [Losartan] reads 9.49 min.
As for `Cc1ccc(OP(=O)(Oc2ccc(C)cc2)Oc2ccc(C)cc2)cc1` [Tricresylphosphate], the figures for the LC retention time in series [2] and in series [3] were 17.3 min and 17.7 min, respectively.
On to `Cc1cccc2sc3nncn3c12` [Tricyclazole], for which the LC retention time in series [2] is 10.3 min; in series [3] it was 10.4 min.
As to `CCOC(=O)CC(O)(CC(=O)OCC)C(=O)OCC` [Triethylcitrate], the results for the LC retention time in series [2] and in series [3] were 11.9 min and 12.1 min, respectively.
The like results for `CC(CN(C)C)CN1c2ccccc2CCc2ccccc21` (stereo not drawn) [Trimipramine] were, in that order, 12.9 min and 17.8 min.
For `CCCN(CCC)CCC` [Tripropylamine] the same measures were 6.53 min and 12.5 min.
The like results for `CC(Cl)COP(=O)(OCC(C)Cl)OCC(C)Cl` (stereo not drawn) [Tris(2-chloropropyl) phosphate] were, in that order, 14.4 min and 14.6 min.
For `COc1nc(NC(=O)NS(=O)(=O)c2ccccc2C(F)(F)F)nc(C(F)(F)F)n1` [Tritosulfuron], the results for the LC retention time in series [2] and in series [3] were 13.8 min and 11.9 min, respectively.
For the molecule `CCC1OC(=O)CC(O)C(C)C(OC2OC(C)C(OC3CC(C)(O)C(O)C(C)O3)C(N(C)C)C2O)C(CC=O)CC(C)C(=O)C=CC(C)=CC1COC1OC(C)C(O)C(OC)C1OC` (stereo not drawn) [Tylosin], the LC retention time in series [2] was 13.1 min; in series [3], 15.5 min.
Consider `O=c1ccc2ccc(O)cc2o1` [Umbelliferone], for which the LC retention time in series [2] was 8.73 min; in series [3], 6.78 min.
The like results for `CC(C)C(N)C(=O)OCC(CO)OCn1cnc2c(=O)[nH]c(N)nc21` (stereo not drawn) [Valganciclovir] were, in that order, 5.17 min and 7.16 min.
For `CCCC(CCC)C(=O)O` [Valproic acid] the same measures were 14.2 min and 10.2 min.
As to `CNC(=O)C(C)SCCSP(=O)(OC)OC` (stereo not drawn) [Vamidothion (Vamidoate)], the results for the LC retention time in series [2] and in series [3] were 9.33 min and 9.45 min, respectively.
For `CNC(CC(C)C)C(=O)NC1C(=O)NC(CC(N)=O)C(=O)NC2C(=O)NC3C(=O)NC(C(=O)NC(C(=O)O)c4cc(O)cc(O)c4-c4cc3ccc4O)C(O)c3ccc(c(Cl)c3)Oc3cc2cc(c3OC2OC(CO)C(O)C(O)C2OC2CC(C)(N)C(O)C(C)O2)Oc2ccc(cc2Cl)C1O` (stereo not drawn) [Vancomycin] the same measures were 7.04 min and 8.6 min.
The like results for `CCCc1nc(C)c2c(=O)[nH]c(-c3cc(S(=O)(=O)N4CCN(CC)CC4)ccc3OCC)nn12` [Vardenafil] were, in that order, 12.2 min and 14.8 min.
With `COc1ccc(CCN(C)CCCC(C#N)(c2ccc(OC)c(OC)c2)C(C)C)cc1OC` (stereo not drawn) [Verapamil], the LC retention time in series [2] was 12.4 min; in series [3], 15.9 min.
For `N#CC1CCCN1C(=O)CNC12CC3CC(CC(O)(C3)C1)C2` (stereo not drawn) [Vildagliptin], the LC retention time is 6.31 min in series [2] and 10.1 min in series [3].
In the case of `CCC12CCCN3CCc4c(n(c5ccccc45)C(O)(C(=O)OC)C1)C32` (stereo not drawn) [Vincamin], the LC retention time in series [2] was 9.43 min; in series [3], 14.6 min.
For `COC(=O)C1C(O)CCC2CN3CCc4c([nH]c5ccccc45)C3CC21` (stereo not drawn) [Yohimbine] the same measures were 9.26 min and 14.1 min.
For `CC1CCCC(=O)CCCC=Cc2cc(O)cc(O)c2C(=O)O1` (stereo not drawn) [Zearalenone], the values for the LC retention time in series [2] and in series [3] were 14.4 min and 14.1 min, respectively.
The like results for `O=C1Cc2cc(CCN3CCN(c4nsc5ccccc45)CC3)c(Cl)cc2N1` [Ziprasidone] were, in that order, 11.3 min and 16.1 min.
`CC1=C2C3OC(=O)C(C)C3CCC2(C)C=CC1=O` (stereo not drawn) [alpha-Santonin]: the LC retention time is 11.3 min in series [2] and 11.5 min in series [3].
Take `CC1CCCC(O)CCCC=Cc2cc(O)cc(O)c2C(=O)O1` (stereo not drawn) [beta Zearalenol]: the LC retention time was 13.4 min in series [2] and 13.3 min in series [3].
In the case of `O=C1CCCCCN1` [epsilon-Caprolactam], the values for the LC retention time in series [2] and in series [3] were 6.99 min and 7 min, respectively.
`OC(Cn1cncn1)(Cn1cncn1)c1ccc(F)cc1F` [fluconazole]: the LC retention time is 9.47 min in series [2] and 9.58 min in series [3].
Consider `Nc1c(Cl)cnn(-c2ccccc2)c1=O` [iso-Chloridazon], for which the LC retention time in series [2] was 11.4 min; in series [3], 11.6 min.
On to `Cc1ccc(S(=O)(=O)O)c(C)c1` [m-Xylene-4-sulfonic acid], for which the LC retention time in series [2] was 7.92 min; in series [3], 7.83 min.
Take `CCn1cc(C(=O)O)c(=O)c2cc(F)c(N3CCNCC3)cc21` [norfloxacin]: the LC retention time in series [2] was 8.16 min; in series [3], 7.5 min.

The record behind these values is the RepoRT retention time repository (doi:10.1021/acs.analchem.1c00972).
